{
  "source": "ChEMBL document CHEMBL1201862",
  "about": "“PubChem BioAssay data set” (2004)",
  "assay_in_all_cases": "DTP human tumour cell line panel, 48 h",
  "key": {"MDA-MB-435": {"tested_on": "MDA-MB-435"}, "DU-145": {"tested_on": "DU-145"}, "SR": {"tested_on": "SR"}, "PC-3": {"tested_on": "PC-3"}, "SW-620": {"tested_on": "SW-620"}, "OVCAR-3": {"tested_on": "OVCAR-3"}, "K562": {"tested_on": "K562"}, "UACC-257": {"tested_on": "UACC-257"}, "Malme-3M": {"tested_on": "Malme-3M"}, "COLO 205": {"tested_on": "COLO 205"}, "U-251": {"tested_on": "U-251"}, "SNB-19": {"tested_on": "SNB-19"}, "CCRF-CEM": {"tested_on": "CCRF-CEM"}, "OVCAR-8": {"tested_on": "OVCAR-8"}, "EKVX": {"tested_on": "EKVX"}, "BT-549": {"tested_on": "BT-549"}, "ACHN": {"tested_on": "ACHN"}, "SK-MEL-28": {"tested_on": "SK-MEL-28"}, "Hs-578T": {"tested_on": "Hs-578T"}, "HOP-92": {"tested_on": "HOP-92"}, "OVCAR-4": {"tested_on": "OVCAR-4"}, "IGROV-1": {"tested_on": "IGROV-1"}, "RPMI-8226": {"tested_on": "RPMI-8226"}, "NCI-H226": {"tested_on": "NCI-H226"}, "CAKI-1": {"tested_on": "CAKI-1"}, "HCC 2998": {"tested_on": "HCC 2998"}, "SF-539": {"tested_on": "SF-539"}, "HCT-116": {"tested_on": "HCT-116"}, "SF-295": {"tested_on": "SF-295"}, "OVCAR-5": {"tested_on": "OVCAR-5"}, "NCI-H460": {"tested_on": "NCI-H460"}, "MDA-N": {"tested_on": "MDA-N"}, "SF-268": {"tested_on": "SF-268"}, "LOX IMVI": {"tested_on": "LOX IMVI"}, "RXF 393": {"tested_on": "RXF 393"}, "KM12": {"tested_on": "KM12"}, "HOP-62": {"tested_on": "HOP-62"}, "T47D": {"tested_on": "T47D"}, "TK-10": {"tested_on": "TK-10"}, "MOLT-4": {"tested_on": "MOLT-4"}, "UO-31": {"tested_on": "UO-31"}, "786-0": {"tested_on": "786-0"}, "M14": {"tested_on": "M14"}, "SN12C": {"tested_on": "SN12C"}, "A549": {"tested_on": "A549"}, "A498": {"tested_on": "A498"}, "HL-60": {"tested_on": "HL-60"}, "HCT-15": {"tested_on": "HCT-15"}, "SK-MEL-2": {"tested_on": "SK-MEL-2"}, "NCI-H522": {"tested_on": "NCI-H522"}, "MDA-MB-231": {"tested_on": "MDA-MB-231"}, "SK-MEL-5": {"tested_on": "SK-MEL-5"}, "HT-29": {"tested_on": "HT-29"}, "NCI-H23": {"tested_on": "NCI-H23"}, "MCF7": {"tested_on": "MCF7"}, "NCI/ADR-RES": {"tested_on": "NCI/ADR-RES"}},
  "note": "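Five compound concentrations were applied to cells in 96-well plates for 48 hours; endpoints were derived by simple linear interpolation of the resulting dose-response curve. Abbreviation: GI50, concentration required for 50% inhibition of growth.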 Activity calls are given as the source filed them. Rule as the data show it: active = GI50 up to about 1.1 µM and inactive = higher.",
  "data": [
    {"smiles": "CC(=O)Nc1cc2cc(N)ccc2oc1=O", "values": [
      {"measurement": "GI50", "setting": "MDA-MB-435", "value": "> 100 µM (inactive)"},
      {"measurement": "GI50", "setting": "DU-145", "value": "> 100 µM (inactive)"},
      {"measurement": "GI50", "setting": "SR", "value": "> 100 µM (inactive)"},
      {"measurement": "GI50", "setting": "PC-3", "value": "> 100 µM (inactive)"},
      {"measurement": "GI50", "setting": "SW-620", "value": "> 100 µM (inactive)"},
      {"measurement": "GI50", "setting": "OVCAR-3", "value": "> 100 µM (inactive)"},
      {"measurement": "GI50", "setting": "K562", "value": "> 100 µM (inactive)"},
      {"measurement": "GI50", "setting": "UACC-257", "value": "> 100 µM (inactive)"},
      {"measurement": "GI50", "setting": "Malme-3M", "value": "> 100 µM (inactive)"},
      {"measurement": "GI50", "setting": "COLO 205", "value": "> 100 µM (inactive)"},
      {"measurement": "GI50", "setting": "U-251", "value": "> 100 µM (inactive)"},
      {"measurement": "GI50", "setting": "SNB-19", "value": "> 100 µM (inactive)"},
      {"measurement": "GI50", "setting": "CCRF-CEM", "value": "> 100 µM (inactive)"},
      {"measurement": "GI50", "setting": "OVCAR-8", "value": "> 100 µM (inactive)"},
      {"measurement": "GI50", "setting": "EKVX", "value": "> 100 µM (inactive)"},
      {"measurement": "GI50", "setting": "BT-549", "value": "> 100 µM (inactive)"},
      {"measurement": "GI50", "setting": "ACHN", "value": "> 100 µM (inactive)"},
      {"measurement": "GI50", "setting": "SK-MEL-28", "value": "> 100 µM (inactive)"},
      {"measurement": "GI50", "setting": "Hs-578T", "value": "> 100 µM (inactive)"},
      {"measurement": "GI50", "setting": "HOP-92", "value": "> 100 µM (inactive)"},
      {"measurement": "GI50", "setting": "OVCAR-4", "value": "> 100 µM (inactive)"},
      {"measurement": "GI50", "setting": "IGROV-1", "value": "> 100 µM (inactive)"},
      {"measurement": "GI50", "setting": "RPMI-8226", "value": "> 100 µM (inactive)"},
      {"measurement": "GI50", "setting": "NCI-H226", "value": "> 100 µM (inactive)"},
      {"measurement": "GI50", "setting": "CAKI-1", "value": "> 100 µM (inactive)"},
      {"measurement": "GI50", "setting": "HCC 2998", "value": "> 100 µM (inactive)"},
      {"measurement": "GI50", "setting": "SF-539", "value": "> 100 µM (inactive)"},
      {"measurement": "GI50", "setting": "HCT-116", "value": "> 100 µM (inactive)"},
      {"measurement": "GI50", "setting": "SF-295", "value": "> 100 µM (inactive)"},
      {"measurement": "GI50", "setting": "OVCAR-5", "value": "> 100 µM (inactive)"},
      {"measurement": "GI50", "setting": "NCI-H460", "value": "> 100 µM (inactive)"},
      {"measurement": "GI50", "setting": "MDA-N", "value": "> 100 µM (inactive)"},
      {"measurement": "GI50", "setting": "SF-268", "value": "> 100 µM (inactive)"},
      {"measurement": "GI50", "setting": "LOX IMVI", "value": "> 100 µM (inactive)"},
      {"measurement": "GI50", "setting": "RXF 393", "value": "0.0411 µM (active)"},
      {"measurement": "GI50", "setting": "KM12", "value": "> 100 µM (inactive)"},
      {"measurement": "GI50", "setting": "HOP-62", "value": "> 100 µM (inactive)"},
      {"measurement": "GI50", "setting": "T47D", "value": "> 100 µM (inactive)"},
      {"measurement": "GI50", "setting": "TK-10", "value": "> 100 µM (inactive)"},
      {"measurement": "GI50", "setting": "MOLT-4", "value": "> 100 µM (inactive)"},
      {"measurement": "GI50", "setting": "UO-31", "value": "> 100 µM (inactive)"},
      {"measurement": "GI50", "setting": "786-0", "value": "> 100 µM (inactive)"},
      {"measurement": "GI50", "setting": "M14", "value": "> 100 µM (inactive)"},
      {"measurement": "GI50", "setting": "SN12C", "value": "> 100 µM (inactive)"},
      {"measurement": "GI50", "setting": "A549", "value": "> 100 µM (inactive)"},
      {"measurement": "GI50", "setting": "A498", "value": "> 100 µM (inactive)"},
      {"measurement": "GI50", "setting": "HL-60", "value": "> 100 µM (inactive)"},
      {"measurement": "GI50", "setting": "HCT-15", "value": "> 100", "unit": "µM"},
      {"measurement": "GI50", "setting": "SK-MEL-2", "value": "> 100 µM (inactive)"},
      {"measurement": "GI50", "setting": "NCI-H522", "value": "> 100 µM (inactive)"},
      {"measurement": "GI50", "setting": "MDA-MB-231", "value": "> 100 µM (inactive)"},
      {"measurement": "GI50", "setting": "SK-MEL-5", "value": "> 100 µM (inactive)"},
      {"measurement": "GI50", "setting": "HT-29", "value": "> 100 µM (inactive)"},
      {"measurement": "GI50", "setting": "NCI-H23", "value": "> 100 µM (inactive)"},
      {"measurement": "GI50", "setting": "MCF7", "value": "> 100 µM (inactive)"},
      {"measurement": "GI50", "setting": "NCI/ADR-RES", "value": "> 100 µM (inactive)"}
    ]}
  ]
}
